Results: PubChem BioAssay (NCI)
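Results reflect a 48-hour exposure of cells in 96-well plates to compound at five concentrations. GI50: concentration for 50% inhibition of growth. The concentration for full growth arrest is given as TGI.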

Assays:
Assay in all cases: NCI-60 cell line screen, 48 h
RXF 393 renal = test system: RXF 393 renal
U251 CNS = test system: U251 CNS
OVCAR-3 ovarian = test system: OVCAR-3 ovarian
SNB-75 CNS = test system: SNB-75 CNS
786-0 renal = test system: 786-0 renal
SNB-19 CNS = test system: SNB-19 CNS
SR leukemia = test system: SR leukemia
SK-MEL-2 melanoma = test system: SK-MEL-2 melanoma
A549 NSCLC = test system: A549 NSCLC
CCRF-CEM leukemia = test system: CCRF-CEM leukemia

OC1C2CN3CCN(C2)CC1(c1ccccc1)C3 (configuration not stated)
TGI (RXF 393 renal): > 100 µM
TGI (U251 CNS): > 100 µM
TGI (OVCAR-3 ovarian): > 100 µM
TGI (SNB-75 CNS): > 100 µM
TGI (786-0 renal): > 100 µM
TGI (SNB-19 CNS): > 100 µM
TGI (SR leukemia): > 100 µM
TGI (SK-MEL-2 melanoma): > 100 µM

Fc1ccc(F)c(C=NC23CC4CC(CC(C4)C2)C3)c1
TGI (A549 NSCLC): > 10 µM
TGI (RXF 393 renal): > 10 µM
TGI (U251 CNS): > 10 µM
TGI (OVCAR-3 ovarian): > 10 µM
TGI (CCRF-CEM leukemia): > 10 µM
TGI (SNB-75 CNS): > 10 µM
TGI (786-0 renal): > 10 µM
TGI (SNB-19 CNS): > 10 µM
TGI (SR leukemia): > 10 µM
TGI (SK-MEL-2 melanoma): > 10 µM

Cc1cc2c(cc1Cl)SSc1cc(Cl)c(C)cc1S(=O)(=O)Nc1nc(N)nn1C(O)n1nc(N)nc1NS2(=O)=O
TGI (A549 NSCLC): > 10 µM
TGI (RXF 393 renal): > 10 µM
TGI (U251 CNS): > 10 µM
TGI (OVCAR-3 ovarian): > 10 µM
TGI (CCRF-CEM leukemia): > 10 µM
TGI (SNB-75 CNS): > 10 µM
TGI (786-0 renal): > 10 µM
TGI (SNB-19 CNS): > 10 µM
TGI (SR leukemia): > 10 µM
TGI (SK-MEL-2 melanoma): > 10 µM

NCC(=O)N[C@H]1c2ccsc2/C(=N/O)[C@H]1O
TGI (A549 NSCLC): > 100 µM
TGI (RXF 393 renal): > 100 µM
TGI (U251 CNS): > 100 µM
TGI (OVCAR-3 ovarian): > 100 µM
TGI (CCRF-CEM leukemia): > 100 µM
TGI (SR leukemia): > 100 µM
TGI (SK-MEL-2 melanoma): > 100 µM

C#CCOC(=O)C=[N+]=[N-]
TGI (A549 NSCLC): > 10 µM
TGI (RXF 393 renal): > 10 µM
TGI (U251 CNS): > 10 µM
TGI (OVCAR-3 ovarian): > 10 µM
TGI (CCRF-CEM leukemia): > 10 µM
TGI (786-0 renal): > 10 µM
TGI (SNB-19 CNS): > 10 µM
TGI (SR leukemia): > 10 µM
TGI (SK-MEL-2 melanoma): > 10 µM

CCN1CC2=C(OC(N)=C(C#N)C2c2ccc(Cl)cc2)/C(=C/c2ccc(Cl)cc2)C1 (configuration not stated)
TGI (A549 NSCLC): 49.1 µM
TGI (RXF 393 renal): 31.9 µM
TGI (U251 CNS): 47.2 µM
TGI (OVCAR-3 ovarian): > 100 µM
TGI (CCRF-CEM leukemia): > 100 µM
TGI (SNB-75 CNS): 34.2 µM
TGI (786-0 renal): 29.8 µM
TGI (SNB-19 CNS): 51 µM
TGI (SR leukemia): > 100 µM
TGI (SK-MEL-2 melanoma): > 100 µM

CCOC(=O)c1ccc(N2C(=O)/C(=C/c3ccc(N(CCC#N)CCC#N)cc3)N=C2c2cc([N+](=O)[O-])ccc2Cl)cc1
TGI (A549 NSCLC): > 100 µM
TGI (RXF 393 renal): > 100 µM
TGI (U251 CNS): > 100 µM
TGI (OVCAR-3 ovarian): > 100 µM
TGI (CCRF-CEM leukemia): > 100 µM
TGI (SNB-19 CNS): > 100 µM
TGI (SR leukemia): > 100 µM
TGI (SK-MEL-2 melanoma): > 100 µM

COc1ccccc1C1C(C#N)=C(N)SC(N)=C1C#N
GI50 (A549 NSCLC): > 100 µM
TGI (A549 NSCLC): > 100 µM
GI50 (RXF 393 renal): > 100 µM
TGI (RXF 393 renal): > 100 µM
GI50 (U251 CNS): 54 µM
TGI (U251 CNS): > 100 µM
GI50 (OVCAR-3 ovarian): 62.4 µM
TGI (OVCAR-3 ovarian): > 100 µM
GI50 (CCRF-CEM leukemia): 26.6 µM
TGI (CCRF-CEM leukemia): 70.4 µM
GI50 (SNB-75 CNS): 39.2 µM
TGI (SNB-75 CNS): > 100 µM
GI50 (SNB-19 CNS): > 100 µM
TGI (SNB-19 CNS): > 100 µM
GI50 (SR leukemia): 16.3 µM
TGI (SR leukemia): 83 µM
GI50 (SK-MEL-2 melanoma): > 100 µM
TGI (SK-MEL-2 melanoma): > 100 µM

CC(C)(C)c1ccc(O)c(C(O)c2ccccn2)c1 (configuration not stated)
TGI (A549 NSCLC): > 100 µM
TGI (RXF 393 renal): > 100 µM
TGI (U251 CNS): > 100 µM
TGI (OVCAR-3 ovarian): > 100 µM
TGI (CCRF-CEM leukemia): > 100 µM
TGI (SNB-75 CNS): > 100 µM
TGI (786-0 renal): > 100 µM
TGI (SNB-19 CNS): > 100 µM
TGI (SR leukemia): > 100 µM

CCOC(=O)Cn1nnc2ccc(Nc3nc4ccccc4nc3C(=O)OCC)cc21
TGI (A549 NSCLC): > 100 µM
TGI (RXF 393 renal): > 100 µM
TGI (U251 CNS): > 100 µM
TGI (OVCAR-3 ovarian): > 100 µM
TGI (CCRF-CEM leukemia): > 100 µM
TGI (SNB-75 CNS): 46.5 µM
TGI (786-0 renal): > 100 µM
TGI (SNB-19 CNS): > 100 µM
TGI (SR leukemia): > 100 µM
TGI (SK-MEL-2 melanoma): > 100 µM

Nc1nc(N)c2cc(-c3cc4ccccc4[nH]3)ccc2n1
TGI (A549 NSCLC): > 100 µM
TGI (RXF 393 renal): 48.4 µM
TGI (U251 CNS): > 100 µM
TGI (OVCAR-3 ovarian): > 100 µM
TGI (CCRF-CEM leukemia): > 100 µM
TGI (SNB-75 CNS): > 100 µM
TGI (786-0 renal): 49.6 µM
TGI (SNB-19 CNS): > 100 µM
TGI (SR leukemia): 60.5 µM
TGI (SK-MEL-2 melanoma): 36.4 µM

Cc1ccc2[nH]c3c(c2c1)C1CCC(C(C)(C)C)CC1C1C(=O)N(c2ccc(Oc4ccccc4)cc2)C(=O)C31 (configuration not stated)
TGI (A549 NSCLC): > 100 µM
TGI (RXF 393 renal): 29.1 µM
TGI (U251 CNS): 21.6 µM
TGI (OVCAR-3 ovarian): 35.4 µM
TGI (CCRF-CEM leukemia): 8.26 µM
TGI (SNB-75 CNS): 9.08 µM
TGI (786-0 renal): 28.3 µM
TGI (SNB-19 CNS): > 71.9 µM
TGI (SR leukemia): 3.07 µM
TGI (SK-MEL-2 melanoma): > 100 µM

O=C1c2cccnc2S(=O)(=O)N1c1ccc(Br)cc1
TGI (A549 NSCLC): > 100 µM
TGI (RXF 393 renal): > 100 µM
TGI (U251 CNS): > 100 µM
TGI (OVCAR-3 ovarian): > 100 µM
TGI (CCRF-CEM leukemia): > 100 µM
TGI (SNB-75 CNS): > 100 µM
TGI (786-0 renal): > 100 µM
TGI (SNB-19 CNS): > 100 µM
TGI (SR leukemia): > 100 µM
TGI (SK-MEL-2 melanoma): > 100 µM

COC(=O)C12C(=O)CC3CCC1C32C(=O)OC (configuration not stated)
TGI (A549 NSCLC): > 100 µM
TGI (RXF 393 renal): > 100 µM
TGI (U251 CNS): > 100 µM
TGI (OVCAR-3 ovarian): > 100 µM
TGI (CCRF-CEM leukemia): > 100 µM
TGI (SNB-75 CNS): > 100 µM
TGI (786-0 renal): > 100 µM
TGI (SNB-19 CNS): > 100 µM
TGI (SR leukemia): > 100 µM
TGI (SK-MEL-2 melanoma): > 100 µM

CCCCOc1ccc(/C=C/C2=[N+](CCO)CCO2)cc1
TGI (A549 NSCLC): > 100 µM
TGI (RXF 393 renal): 63.3 µM
TGI (U251 CNS): > 100 µM
TGI (OVCAR-3 ovarian): > 100 µM
TGI (CCRF-CEM leukemia): 67.1 µM
TGI (SNB-75 CNS): > 100 µM
TGI (786-0 renal): > 100 µM
TGI (SNB-19 CNS): > 100 µM
TGI (SR leukemia): 62.7 µM
TGI (SK-MEL-2 melanoma): > 100 µM

COP(=O)(OC)[C@@](O)(c1ccccc1)[C@@H](O)[C@H](O)c1ccccc1
TGI (A549 NSCLC): > 100 µM
TGI (RXF 393 renal): > 100 µM
TGI (U251 CNS): > 100 µM
TGI (OVCAR-3 ovarian): > 100 µM
TGI (CCRF-CEM leukemia): 41.6 µM
TGI (SNB-75 CNS): > 100 µM
TGI (786-0 renal): > 100 µM
TGI (SNB-19 CNS): > 100 µM
TGI (SR leukemia): > 100 µM
TGI (SK-MEL-2 melanoma): > 100 µM

CCOP(=O)(OCC)/C(C#N)=C/c1nc[nH]c1C
TGI (A549 NSCLC): > 100 µM
TGI (RXF 393 renal): > 100 µM
TGI (U251 CNS): > 100 µM
TGI (OVCAR-3 ovarian): > 100 µM
TGI (CCRF-CEM leukemia): > 100 µM
TGI (SNB-75 CNS): > 100 µM
TGI (786-0 renal): > 100 µM
TGI (SNB-19 CNS): > 100 µM
TGI (SR leukemia): > 100 µM
TGI (SK-MEL-2 melanoma): > 100 µM

C[C@]12C(=O)OC[C@H](c3ccccc3)N1C(=O)N(Cc1ccccc1)[C@@H]2CO
TGI (A549 NSCLC): > 100 µM
TGI (RXF 393 renal): > 100 µM
TGI (OVCAR-3 ovarian): > 100 µM
TGI (CCRF-CEM leukemia): > 100 µM
TGI (SNB-75 CNS): > 100 µM
TGI (786-0 renal): > 100 µM
TGI (SNB-19 CNS): > 100 µM
TGI (SR leukemia): > 100 µM
TGI (SK-MEL-2 melanoma): > 100 µM

COC1CCC(O)C(CO)O1 (configuration not stated)
TGI (A549 NSCLC): > 100 µM
TGI (RXF 393 renal): > 100 µM
TGI (OVCAR-3 ovarian): > 100 µM
TGI (CCRF-CEM leukemia): 77.3 µM
TGI (SNB-75 CNS): > 100 µM
TGI (SR leukemia): > 100 µM
TGI (SK-MEL-2 melanoma): > 100 µM

CCOc1cc2c(cc1OC)c[n+](C)c1c3cc(OC)c(OC)cc3ccc21
TGI (A549 NSCLC): > 100 µM
TGI (RXF 393 renal): 73.5 µM
TGI (U251 CNS): > 48.2 µM
TGI (OVCAR-3 ovarian): > 100 µM
TGI (CCRF-CEM leukemia): > 65.8 µM
TGI (786-0 renal): > 56.6 µM
TGI (SNB-19 CNS): > 100 µM
TGI (SR leukemia): > 100 µM
TGI (SK-MEL-2 melanoma): > 80.6 µM

O=C(CN1CCCCC1)c1ccc2[nH]c(=O)oc2c1
TGI (RXF 393 renal): > 100 µM
TGI (U251 CNS): > 100 µM
TGI (OVCAR-3 ovarian): > 100 µM
TGI (CCRF-CEM leukemia): > 100 µM
TGI (SNB-75 CNS): 87.8 µM
TGI (786-0 renal): > 100 µM
TGI (SNB-19 CNS): > 100 µM
TGI (SR leukemia): > 100 µM
TGI (SK-MEL-2 melanoma): > 100 µM

CCCCOC(=O)Nc1ccc(S(=O)(=O)Nc2c(Cl)cccc2Cl)cc1
TGI (A549 NSCLC): > 100 µM
TGI (RXF 393 renal): > 100 µM
TGI (U251 CNS): > 100 µM
TGI (OVCAR-3 ovarian): 73.5 µM
TGI (CCRF-CEM leukemia): > 100 µM
TGI (786-0 renal): 79.5 µM
TGI (SNB-19 CNS): > 100 µM
TGI (SR leukemia): 48.7 µM
TGI (SK-MEL-2 melanoma): 66.8 µM
